Source: ChEMBL document CHEMBL1201862, “PubChem BioAssay data set” (2004)
Activity calls are given as the source filed them.

Tests used:
[1] = biological target: Beta-lactamase (Salmonella choleraesuis (strain SC-B67), UniProt Q5J463); test: Epi-absorbance-based counterscreen for selective VIM-2 inhibitors: dose response biochemical high throughput screening assay to identify inhibitors of TEM-1 serine-beta-lactamase.
[2] = biological target: T1, Beta-lactamase (Pseudomonas aeruginosa, UniProt Q79MP6); test: IMP-1 metallo-beta-lactamase inhibitors, dose response, selectivity assay for VIM-2 inhibitor project, biochemical, epi-absorbance (AID 1920)
T1 sequence (Q79MP6 whole entry): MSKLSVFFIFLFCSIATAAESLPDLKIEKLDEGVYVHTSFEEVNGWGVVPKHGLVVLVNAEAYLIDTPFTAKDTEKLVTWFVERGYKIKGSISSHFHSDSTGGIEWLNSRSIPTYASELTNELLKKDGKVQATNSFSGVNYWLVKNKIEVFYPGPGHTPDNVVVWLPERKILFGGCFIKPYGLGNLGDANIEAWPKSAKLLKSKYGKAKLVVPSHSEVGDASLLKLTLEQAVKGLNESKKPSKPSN

[3] = biological target: T2, Beta Lactamase (Pseudomonas aeruginosa, UniProt Q932Y6); test: VIM-2 metallo-beta-lactamase inhibitor potency, dose response, biochemical, epi-absorbance readout, selective inhibitors (AID 1919)
T2 sequence (Q932Y6 whole entry): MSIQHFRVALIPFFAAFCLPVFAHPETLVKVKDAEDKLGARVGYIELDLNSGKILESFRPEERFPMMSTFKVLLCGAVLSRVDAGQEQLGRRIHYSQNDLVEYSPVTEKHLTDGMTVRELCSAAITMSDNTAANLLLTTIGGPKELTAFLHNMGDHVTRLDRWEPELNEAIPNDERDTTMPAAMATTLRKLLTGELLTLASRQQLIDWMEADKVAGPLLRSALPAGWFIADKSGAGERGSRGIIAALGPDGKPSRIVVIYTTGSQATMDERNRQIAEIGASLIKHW

[4] = biological target: T2, Beta Lactamase; test: VIM-2 inhibitor FRET-based artefact check, dose response, artefact control for selective VIM-2 inhibitor project, biochemical, FRET readout, CCF2 substrate (AID 1926)
[5] = biological target: T1, Beta-lactamase; test: […] counterscreen for selective VIM-2 inhibitors: dose response biochemical high throughput screening assay to identify inhibitors of IMP-1 metallo-beta-lactamase.
[6] = NIH/3T3 fibroblast cytotoxicity, dose response, cytotoxicity control for T. cruzi growth inhibitor project, cell-based, cherry-pick samples, set 2 (AID 651817); assay type: functional; settings: NIH3T3

Chain of Beta-lactamase (Salmonella choleraesuis (strain SC-B67), UniProt Q5J463) (Q5J463 whole entry): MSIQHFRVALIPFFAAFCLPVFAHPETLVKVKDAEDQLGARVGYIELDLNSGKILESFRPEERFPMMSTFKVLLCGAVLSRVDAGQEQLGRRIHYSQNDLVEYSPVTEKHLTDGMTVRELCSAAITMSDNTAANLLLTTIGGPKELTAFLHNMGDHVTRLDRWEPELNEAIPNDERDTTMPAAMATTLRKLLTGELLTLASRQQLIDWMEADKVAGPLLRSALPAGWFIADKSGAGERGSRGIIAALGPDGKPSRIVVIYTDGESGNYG

| SMILES | IC50 [1] | IC50 [2] | IC50 [3] | IC50 [4] | IC50 [5] | AC50 [6] |
| --- | --- | --- | --- | --- | --- | --- |
| O=C(C1=C(O)C(=O)N(Cc2cccnc2)C1c1ccccn1)c1ccc(F)cc1 (stereo unspecified) | > 59.6 µM (inactive) | > 59.6 µM (inactive) | 2.42 µM (active) | 0.941 µM (active) | > 59.6 µM (inactive) |  |
| C[C@@H]1CN([C@H](C)CO)C(=O)Cc2cc(NS(=O)(=O)c3ccc(Cl)cc3)ccc2O[C@H]1CN(C)S(=O)(=O)c1ccc(Cl)cc1 |  |  |  |  |  | 16.9 µM (active) |
